# From article PMC9703632, “The noncatalytic regions of the tyrosine kinase Tnk1 are important for activity and substrate specificity” (The Journal of Biological Chemistry, 2022)
# T1: Tnk1 (thirty-eight negative kinase 1) (Homo sapiens, UniProt Q13470)
# T1 construct: Tnk1^ΔCT, residues 1-510 (SAM, kinase and SH3 domains), N-terminal 6x-His and GST tags, Sf9
# T1 sequence (Q13470 1-510 isoform Q13470-2): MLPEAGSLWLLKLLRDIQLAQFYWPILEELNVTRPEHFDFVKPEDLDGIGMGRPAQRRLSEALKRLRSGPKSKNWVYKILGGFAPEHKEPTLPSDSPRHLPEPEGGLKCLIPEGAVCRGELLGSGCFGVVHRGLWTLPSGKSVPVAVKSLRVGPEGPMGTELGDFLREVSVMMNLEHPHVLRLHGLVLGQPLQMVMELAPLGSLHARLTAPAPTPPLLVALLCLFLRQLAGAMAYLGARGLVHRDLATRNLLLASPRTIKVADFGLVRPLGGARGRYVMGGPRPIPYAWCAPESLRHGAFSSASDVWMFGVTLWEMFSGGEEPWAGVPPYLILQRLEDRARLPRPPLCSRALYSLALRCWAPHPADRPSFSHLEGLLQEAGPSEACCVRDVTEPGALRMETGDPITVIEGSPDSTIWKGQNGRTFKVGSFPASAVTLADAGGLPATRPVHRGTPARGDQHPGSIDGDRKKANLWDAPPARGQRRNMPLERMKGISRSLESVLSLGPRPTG
# How the values were obtained:
# [1] = target: T1, Tnk1 (thirty-eight negative kinase 1); test: […]-ATP phosphocellulose kinase assay, WASP peptide, dose-response; assay type: biochemical
# [2] = target: T1, Tnk1 (thirty-eight negative kinase 1); test: single-concentration ([…]) inhibition, […]-ATP phosphocellulose kinase assay, WASP peptide; assay type: biochemical; conditions: read-out: % inhibition at 10 μM
# purified protein = substrate: Nc1ncnc2c1ncn2[C@@H]1O[C@H](COP(=O)(O)OP(=O)(O)OP(=O)(O)O)[C@@H](O)[C@H]1O; test: purified protein; assay type: biochemical, Homo sapiens; conditions: MgCl2
Molecule,inhibition at 10 µM [2] [%],also measured
CN1CCN(c2ccc(Nc3ncc(Cl)c(NC[C@H]4CCCO4)n3)cc2)CC1 [(R)-9b],,IC50 [1]: 470 nM
C#Cc1cccc(Nc2ncnc3cc(OCCOC)c(OCCOC)cc23)c1 [erlotinib],30 to 40,
COc1cc2ncnc(Nc3ccc(F)c(Cl)c3)c2cc1OCCCN1CCOCC1 [gefitinib],30 to 40,
"Tnk1 (thirty-eight negative kinase 1) (Homo sapiens) (protein, Tnk1^ΔCT, residues 1-510 (SAM, kinase and SH3 domains), N-terminal 6x-His and GST tags, Sf9) MLPEAGSLWLLKLLRDIQLAQFYWPILEELNVTRPEHFDFVKPEDLDGIGMGRPAQRRLSEALKRLRSGPKSKNWVYKILGGFAPEHKEPTLPSDSPRHLPEPEGGLKCLIPEGAVCRGELLGSGCFGVVHRGLWTLPSGKSVPVAVKSLRVGPEGPMGTELGDFLREVSVMMNLEHPHVLRLHGLVLGQPLQMVMELAPLGSLHARLTAPAPTPPLLVALLCLFLRQLAGAMAYLGARGLVHRDLATRNLLLASPRTIKVADFGLVRPLGGARGRYVMGGPRPIPYAWCAPESLRHGAFSSASDVWMFGVTLWEMFSGGEEPWAGVPPYLILQRLEDRARLPRPPLCSRALYSLALRCWAPHPADRPSFSHLEGLLQEAGPSEACCVRDVTEPGALRMETGDPITVIEGSPDSTIWKGQNGRTFKVGSFPASAVTLADAGGLPATRPVHRGTPARGDQHPGSIDGDRKKANLWDAPPARGQRRNMPLERMKGISRSLESVLSLGPRPTG",,Km (purified protein): 70 µM
